Key:
[1] = molecular target: MCP chymotrypsin-like activity (Homo sapiens, UniProt P28074); assay: Inhibition of MCP chymotrypsin-like activity; assay type: biochemical
Source text: (§1) The rank-order potency for Jurkat cell killing precisely matched the order for MCP inhibition (Table 2, below).
Inhibition of the chymotrypsin-like activity of MCP by the disclosed MCP inhibitors has been reported, but these MCP inhibitors produced relatively little inhibition on the MCP trypsin-like activity and cathepsin B, a vacuolar cysteine protease (Iqbal, M., et al. J. Med Chem. 38: 2276-2277, 1995; Iqbal, M., et al. Bioorg. Med. Chem. Lett. 6: 287-290, 1996; and Harding, C. V., et al. J. Immuno. 155: 1767-1775, 1995). Furthermore, the order of potency for inhibition of the chymotrypsin-like activity was reported to be Compound A>Compound B>Compound C by using both isolated MCP and intact murine B cells (Iqbal, M., et al. J. Med Chem. 38: 2276-2277, 1995; Iqbal, M., et al. Bioorg. Med. Chem. Lett. 6: 287-290, 1996; and Harding, C. V., et al. J. Immuno. 155: 1767-1775, 1995).

human Jurkat T cells = assay: Apoptosis in Jurkat T cells (flow cytometry sub-G1 DNA content, DNA fragmentation); assay type: cell-based; details: for Increase in the apoptotic population with sub-G1 DNA content: Jurkat T cells, 15 μM, 8 h
Procedure: (§2) c. Treatment of cells with MCP inhibitor. Cells were treated with a specified MCP Inhibitor, a standard anticancer agent (etoposide or cisplatin), or DMSO (vehicle). During this process, morphological changes and cellular detachment (for attached cell lines) were monitored. At each time point, cells were harvested, and used for measurement of apoptosis and other biochemical events. In Example 1, infra, involving YVAD-CMK, Compound A was first added to Jurkat T cells. This was followed immediately by dividing the cells into multiple tissue culture flasks. YVAD-CMK was then added to an indicated concentration.
(§3) d. Flow cytometry nuclear staining and DNA fragmentation assays. DNA content analysis using flow cytometry was performed as described previously (Nicoletti, I., et al. J. Immunol. Methods 139:271-279, 1992). To assay nuclear morphology, cells were washed with PBS, fixed with 70% ethanol for 1 h, and stained with Hoechst 33258 (1 mM) for 30 min. The nuclear morphology of cells was visualized by fluorescence microscope (OLYMPUS BH2). DNA fragmentation was assayed as described previously (Grant, S., et al. Cancer Res. 52:6270-6278, 1992).
(§4) Example 1 was designed to determine if MCP is involved in the survival signaling pathway(s) and if inhibition of MCP activity induces apoptosis. Human Jurkat T cells were treated with 30 μM Compound A for 4 h. […] Both the p112 and p115 forms of RB as p112-115/RB were combined and used as an apoptosis marker.
When human Jurkat T cells were treated with 15 μM Compound A for 8 h, there was a 23% increase in the apoptotic population with sub-G1 DNA content (FIG. 2, panels b vs. a). By comparison, when Compound B was used, only an 8%-increase in sub-G1 population was detected (FIG. 2, panels c vs. a).

[2] = tested on: PARP, RB and caspase-3 cleavage in Jurkat T cells; assay: Western blot of caspase-3, PARP and RB in Jurkat T cells; assay type: cell-based, human; details: Jurkat T cells, 15 μM, time course up to 24 h
Procedure: (§5) e. Whole cell extracts and western blot assay. To prepare whole cell extracts, cells were washed with PBS, and homogenized in lysis buffer (50 mM Tris, pH 8.0, 5 mM EDTA, 150 mM NaCl, 0.5% Nonidet P-40, 0.5 mM PMSF and 0.5 mM dithiothreitol). Following 30 min rocking at 4° C., the lysates were centrifuged and the supernatants were collected as whole cell extracts. The protein samples were then analyzed by sodium dodecyl sulfate-6% polyacrylamide gel electrophoresis (20-60 μg protein per lane) followed by the enhanced chemiluminescence Western blot assay using specific antibodies to CPP32, PARP, p21, p27 or RB.
as §4
The ability of these three MCP inhibitors to induce changes in PARP and RB proteins in a parallel experiment was also investigated. […] This rank corresponded exactly to that of the three compounds for inhibition of the chymotrypsin-like activity in isolated proteasomes (Iqbal, M., et al. J. Med Chem. 38: 2276-2277, 1995; Iqbal, M., et al. Bioorg. Med. Chem. Lett. 6: 287-290, 1996) and in intact murine B cells (Harding, C. V., et al. J Immuno. 155: 1767-1775, 1995).

[3] = tested on: Jurkat Human T Cell Leukemia Line; assay: Jurkat cell viability assay (XTT reduction); assay type: cell-based; details: Jurkat cells, 24 hours, viability by XTT reduction, read-out: Toxicity (IC50)
Procedure: f. Cell viability assay. Jurkat cells were treated with MCP inhibitors or vehicle for 30 min. at 37° C. Next, ionomycin (1 μM) and the phorbol ester PMA (10 ng/ml) were added, together with 0.2% ethanol. After 24 h, cell viability was assessed by reduction of XTT (Sigma, X4251). To each well, 50 μl of XTT (1 mg/ml) and 25 μl PMS (Sigma 9625, 5 mM) were added. After 3 h at 37° C., the OD of each well was read at 450 nm/690 nm by a plate reader.
as §1

[4] = tested on: Jurkat cells transfected with a control vector; assay: Apoptotic nuclear changes (Hoechst staining) in Jurkat cells transfected with control vector; assay type: cell-based, human; details: 50 μM, 8 h
Procedure: (§6) b. Cell culture. Human Jurkat T and HL-60 cells were grown in RPMI 1640 (Life Technologies, Inc.) supplemented with 10% fetal calf serum (Sigma), 100 units/ml of penicillin, 100 μg/ml of streptomycin and 2mM L-glutamine (growth medium). Jurkat T. cells overexpressing the Bcl-2 oncoprotein or vector alone (provided by Dr. D. Johnson, University of Pittsburgh, Pa.) were grown in the same growth medium with […] G418. Human cancer cell lines of breast (MCF-7, MDA-MB-231), prostate (DU145, PC3) and osteosarcoma (U2-OS), obtained from American Type Culture Collection (ATCC. Rockville, Md.)), were also grown in the RPMI growth medium. Human oral (SCC-25; from ATCC) and brain (SNB-19; Welch, W. C., et al. In Vitro Cell. Dev. Biol., 31:610-616, 1995) cancer cell lines, and normal (WI-38) and SV40-transformed human fibroblasts (WI-38 VA-13; from ATCC) were grown in DMEM medium containing 10% fetal calf serum, penicillin, streptomycin and L-glutamine.
as §3
The apoptosis-inducing potency of Compound A was compared with two standard chemotherapeutic anti-cancer agents, etoposide and cisplatin. […] By comparison, treatment with 50 μM etoposide for 8 h induced only ˜47% of these cells to undergo apoptosis (FIG. 3, panels c vs. a). Treatment of 10 μM Compound A, but not etoposide or cisplatin, induced apoptosis in human prostate, breast, tongue and brain cancer cells and also in SV40 DNA virus-transformed human fibroblasts (see FIGS. 5-7).

[5] = tested on: p21 and p27 in human breast cancer MDA-MB-231 cells; assay: Western blot of p21 and p27 levels in MDA-MB-231 cells; assay type: cell-based; details: MDA-MB-231, 17 hours, concentrations up to 100 μM
Procedure: as §5
Additionally, a band of 70 kDa whih may represent ubiquinated p70 was also observed. In contrast, etoposide caused only limited accumulation of p21 (≦4-fold) and p27 (≦2-fold) at 17 hours when used at concentrations up to 100 μM.

[6] = tested on: human breast cancer MCF-7 cells; assay: Detachment and apoptotic nuclear changes in MCF-7 cells; assay type: cell-based; details: MCF-7, 24 h
Procedure: as §2, §3
(§7) Detachment was also found in at least half of human breast cancer MDA-MB-231 and MCF-7 cells, after exposure to Compound A for 24 h.

[7] = tested on: Bcl-2-overexpressing Jurkat cells; assay: Apoptosis in Bcl-2-overexpressing Jurkat cells (nuclear staining, western blot); assay type: cell-based, human
Procedure: as §6, §3, §5
It has been shown that overexpression of Bcl-2 oncoprotein inhibits apoptosis in many cell systems (Miura, M., et al., J. Cell 75: 653-660, 1993). Bcl-2 expression in human Jurkat T cells for inhibition of Compound A-induced apoptosis was investigated.

[8] = tested on: human prostate cancer DU145 cells; assay: Detachment and apoptotic nuclear changes in DU145 cells; assay type: cell-based; details: DU145, 16 h
Procedure: as §2, §3
Similar to PC-3, about half of human prostate cancer DU145 cells became detached after exposure to Compound A for 16 h.

[9] = tested on: SV40-transformed human fibroblasts (WI-38 VA13); assay: Detachment, apoptotic nuclear changes and PARP cleavage in SV40-transformed fibroblasts; assay type: cell-based; details: WI-38 VA13, 10 μM, up to 22 h
Procedure: as §2, §3, §5
(§8) Whether Compound A has, any selectivity in induction of apoptosis between transformed and normal cells was investigated. Normal human fibroblast cell line (WI-38) and its SV40-transformed derivative (WI-38 VA13) were utilized. […]

[10] = tested on: Normal human fibroblast cell line (WI-38); assay: Detachment, apoptotic nuclear changes and PARP cleavage in normal fibroblasts; assay type: cell-based; details: normal WI-38, 10 μM, up to 22 h
Procedure: as §2, §3, §5, §8

[11] = tested on: human breast cancer MDA-MB-231 cells; assay: Detachment and apoptotic nuclear changes in MDA-MB-231 cells; assay type: cell-based; details: MDA-MB-231, 24 h
Procedure: as §2, §3, §7

[12] = tested on: Human prostate cancer PC-3 cells; assay: Detachment and apoptotic nuclear changes in PC-3 cells; assay type: cell-based; details: PC-3, 10 μM, 36 h
Procedure: as §2, §3
Human prostate cancer PC-3 cells were treated with 10 μM Compound A, etoposide, or an equal percentage of vehicle (DMSO), followed by separation of the attached and detached cell populations. Both attached and detached cell populations were then used for detection of apoptotic nuclear changes. After 36 h treatment with Compound A, ˜50% of PC-3 cells became detached.

[13] = tested on: human leukemia HL-60 cells; assay: Apoptosis in HL-60 cells (DNA fragmentation, PARP cleavage); assay type: cell-based
Procedure: as §3, §5
Example 1 was designed to determine if MCP is involved in the survival signaling pathway(s) and if inhibition of MCP activity induces apoptosis. Human Jurkat T cells were treated with 30 μM Compound A for 4 h. […]

Compound: CCNC(=O)C(=O)C(CC(C)C)NC(=O)C(CCCN/C(N)=N/[N+](=O)[O-])NC(=O)C(CCCCCCCCC#N)C1CCCC1 (centres unmarked) [Compound C]
- IC50 [1]: 0.021 µM
- Increase in the apoptotic population with sub-G1 DNA content (human Jurkat T cells): did not induce apoptosis
- Production of p85/PARP and p112-115/RB [2]: only induced little p85/PARP and p112-115/RB after 24 h
- IC50 [3]: 9.7 µM

Compound: COc1cc([C@@H]2c3cc4c(cc3[C@@H](O[C@@H]3O[C@@H]5CO[C@@H](C)O[C@H]5[C@H](O)[C@H]3O)[C@H]3COC(=O)[C@H]23)OCO4)cc(OC)c1O [etoposide, reference compound]
- Cells exhibiting apoptotic nuclear changes [4]: ~47%
- Accumulation of p21 [5]: ≤ 4 fold
- Accumulation of p27 [5]: ≤ 2 fold
- Apoptosis by nuclear staining [6]: did not induce apoptosis
- Effect of Bcl-2 expression on induced PARP and RB changes ([7]; 50 μM): inhibited these PARP and RB changes
- Effect of Bcl-2 expression on induced apoptotic nuclear changes ([7]; etoposide treatment as in FIG. 3 (50 μM, 8 h)): blocked the apoptotic nuclear changes induced by etoposide
- Detached cells [8]: very little detachment
- Nuclear morphology [8]: the remaining attached cells still contained normal nuclei
- Detachment and apoptotic nuclear changes [9]: did not induce apoptosis in either transformed or normal WI-38 cells
- Detachment and apoptotic nuclear changes [10]: did not induce apoptosis in either transformed or normal WI-38 cells
- Apoptosis by nuclear staining [11]: did not induce apoptosis
- Detached cells [12]: Little or no detachment
- Nuclear morphology (apoptotic condensation and fragmentation) [12]: all the remaining attached cells contained normal, round nuclei

Compound: CC(C)C[C@@H](C=O)NC(=O)[C@@H](CCCNC(=N)N[N+](=O)[O-])NC(=O)C(CCCCCCCCC#N)C1CCCC1 (some centres unmarked) [Compound B]
- IC50 [1]: 0.006 µM
- Internucleosomal fragmentation of DNA [13]: induced internucleosomal fragmentation of DNA
- Increase in the apoptotic population with sub-G1 DNA content (human Jurkat T cells): 8%
- Production of p85/PARP and p112-115/RB [2]: much less p85/PARP and p 112-115/RB were found before 8 h
- IC50 [3]: 1.6 µM

Compound: COC(=O)CCCCCCCCC(C(=O)N[C@@H](CCCNC(=N)NS(=O)(=O)c1ccc2c(c1)CCC(C)(C)O2)C(=O)N[C@H](C=O)CC(C)C)C1CCCC1 (some centres unmarked) [F]
- IC50 [1]: 0.01 µM

Compound: COC(=O)CCCCCCCCC(C(=O)N[C@@H](CCCNC(=N)NS(=O)(=O)c1ccc2c(c1)CCC(C)(C)O2)C(=O)NC(C=O)CC(C)C)C1CCCC1 (some centres unmarked) [F]
- IC50 [3]: 1.7 µM

Compound: Cc1c(C)c(S(=O)(=O)NC(=N)NCCC[C@H](NC(=O)C(CCCCCCCCC#N)C2CCCC2)C(=O)N[C@H](C=O)CC(C)C)c(C)c2c1OC(C)(C)CC2 (some centres unmarked) [G]
- IC50 [1]: 0.02 µM
- IC50 [3]: 5.7 µM

Compound: Acetyl-YVAD-chloromethyl ketone [YVAD-CMK, reference compound]
- Block of Compound A-induced apoptotic events (apoptotic peak, caspase-3 processing, PARP cleavage, RB dephosphorylation and cleavage) (human Jurkat T cells; added to Compound A-treated Jurkat T cells): completely blocked

Compound: CC(C)CC(C=NNC(N)=O)NC(=O)C(CCCNC(=N)N[N+](=O)[O-])NC(=O)C(CCCCCCCCC#N)C1CCCC1 (centres unmarked) [H]
- IC50 [1]: 0.3 µM
- IC50 [3]: > 30 µM
